Here are results for 44 molecules from PMC4239038, “The Potent Cdc7-Dbf4 (DDK) Kinase Inhibitor XL413 Has Limited Activity in Many Cancer Cell Lines and Discovery of Potential New DDK Inhibitor Scaffolds” (PLoS ONE, 2014).

Structures can show the parent of a compound that is named as a salt. Where only a bound is given, the exact number is not on record here.

The target of the first test is T1, purified DDK (Homo sapiens, UniProt O00311).
T1 construct: His6-Smt3 (SUMO) (N, cleaved yes); made in house; host or cells: E. coli BL21-RIPL (pKT37, pETDuet-1 vector)
T1 sequence (O00311 whole entry): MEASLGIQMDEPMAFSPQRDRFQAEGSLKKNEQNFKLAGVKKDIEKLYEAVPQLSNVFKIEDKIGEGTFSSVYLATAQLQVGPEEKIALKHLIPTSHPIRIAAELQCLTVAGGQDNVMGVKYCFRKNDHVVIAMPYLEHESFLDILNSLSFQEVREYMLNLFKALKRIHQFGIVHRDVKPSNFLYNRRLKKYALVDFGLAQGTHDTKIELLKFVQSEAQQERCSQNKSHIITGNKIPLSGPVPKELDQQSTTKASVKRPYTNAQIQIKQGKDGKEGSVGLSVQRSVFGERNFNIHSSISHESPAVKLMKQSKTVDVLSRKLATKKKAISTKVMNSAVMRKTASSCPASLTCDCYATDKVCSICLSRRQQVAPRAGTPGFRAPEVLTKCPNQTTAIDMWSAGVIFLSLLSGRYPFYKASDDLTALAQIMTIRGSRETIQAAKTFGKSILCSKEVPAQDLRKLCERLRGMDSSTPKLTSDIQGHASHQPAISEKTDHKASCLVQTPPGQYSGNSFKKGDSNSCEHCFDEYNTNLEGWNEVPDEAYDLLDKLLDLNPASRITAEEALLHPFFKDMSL
T1 sequence (Q9UBU7 341-674 partner limits assumed): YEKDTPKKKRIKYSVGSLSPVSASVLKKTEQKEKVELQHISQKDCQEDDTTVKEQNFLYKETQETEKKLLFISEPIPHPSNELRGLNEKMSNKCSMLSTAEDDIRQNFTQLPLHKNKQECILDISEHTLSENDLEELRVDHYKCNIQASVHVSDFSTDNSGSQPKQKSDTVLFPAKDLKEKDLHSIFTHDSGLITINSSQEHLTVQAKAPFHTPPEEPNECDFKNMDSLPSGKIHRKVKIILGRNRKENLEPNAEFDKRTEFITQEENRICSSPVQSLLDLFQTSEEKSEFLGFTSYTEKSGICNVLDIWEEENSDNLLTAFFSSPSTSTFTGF
In words: In vitro (γ)-32P ATP DDK kinase assay (DDK auto-phosphorylation). Type of test: biochemical. The following applies: increasing inhibitor concentrations.
Turning to `Cc1ccc([N+](=O)[O-])cc1S(=O)(=O)N(C)/N=C/c1cnc2ccc(Br)cn12` [PI 3-Kα Inhibitor VIII, N-((1E)-(6-Bromoimidazo[1,2-a]pyridin-3-yl)methylene)-N'-methyl-N''-(2-methyl-5-nitrobenzene)sulfonohydrazide, HCl], the IC50 (as a rule, the concentration that inhibits the measured activity by half) came to 1300 nM. In turn, `c1ccc2c(-c3ccncc3)c[nH]c2c1` [Rockout, 3-pyridin-4-yl-1H-indole] had an IC50 of 860 nM.

In a further test the target is T1, purified DDK. The test can be described thus: DDK thermal stability shift assay (TSA). Type of test: binding. The conditions noted are these: 20 µM.
`CS(=O)(=O)c1ccc(-c2nc(-c3ccc(F)cc3)c(-c3ccncc3)[nH]2)cc1` [SB 203580, Sulfone]: the ΔTm (usually the shift of the melting midpoint relative to a reference) is 0.5 °C.

The test is the same for the next values; noted with them: library screen, 10 µM compound.
In the case of `CNC1CC2OC(C)(C1OC)n1c3ccccc3c3c4c(c5c6ccccc6n2c5c31)C(=O)NC4O` (stereo not shown) [UCN-01, 7-Hydroxystaurosporine], the shift in melting temperature (ΔTm) at 10 µM worked out at 2.1 °C.

Staying with this test, now noted: library screen, 20 µM compound.
For `Cc1ccc([N+](=O)[O-])cc1S(=O)(=O)N(C)/N=C/c1cnc2ccc(Br)cn12` [PI 3-Kα Inhibitor VIII, N-((1E)-(6-Bromoimidazo[1,2-a]pyridin-3-yl)methylene)-N'-methyl-N''-(2-methyl-5-nitrobenzene)sulfonohydrazide, HCl], the ΔTm at 20 µM came out at 2.6 °C. Take `c1nc2nc(Nc3ccc(N4CCOCC4)cc3)nc(NC3CCCCC3)c2[nH]1` [Reversine]: the ΔTm at 20 µM came to 1.4 °C.

`O=C(Nc1ccncc1)Nc1c(Cl)cc(Cl)cc1Cl` [Rho Kinase Inhibitor II]: the ΔTm is 0 °C. Same read-out and setting: in the case of `O=C(Nc1ccc(-c2cn[nH]c2)cc1)C1COc2ccccc2O1` (stereo not shown) [Rho Kinase Inhibitor V] it was 1.5 °C; in that of `CS(=O)(=O)O.Cn1cc(C2=C(c3cn(CCCSC(=N)N)c4ccccc34)C(=O)NC2=O)c2ccccc21` [Ro 31-8220 mesylate], 1.5 °C. On to `CC(=O)c1c(O)c(C)c(O)c(Cc2c(O)c3c(c(C(=O)/C=C/c4ccccc4)c2O)OC(C)(C)C=C3)c1O` [Ro]lerin, 3'-[(8-Cinnamoyl-5,7-dihydroxy-2,2-dimethyl-2H-1-benzopyran-6-yl)methyl]-2',4',6'-trihydroxy-5'-methylacetophenone], for which the ΔTm at 20 µM is 2.4 °C. As for `Oc1ccc(-c2nc(-c3ccncc3)c(-c3ccc(F)cc3)[nH]2)cc1` [SB 202190], the ΔTm at 20 µM came to 0.6 °C. Turning to `C[S+]([O-])c1ccc(-c2nc(-c3ccc(F)cc3)c(-c3ccncc3)[nH]2)cc1.Cl` (stereo not shown) [SB 203580 hydrochloride], the ΔTm came to 0 °C.

On to `NC(=O)c1ccc(-c2nc(-c3ccc4c(c3)OCO4)c(-c3ccccn3)[nH]2)cc1` [SB 431542], for which the ΔTm at 20 µM stood at 0 °C. Turning to `N#C/C(=C(\N)Sc1ccc(N)cc1)c1ccccc1C(F)(F)F` [SL 327], the ΔTm at 20 µM was determined as 0.5 °C.

Regarding `Oc1c2ccccc2c2c3c(cccc13)N=N2` [SP 600125], the ΔTm at 20 µM came to 0.2 °C. On the same count and under the same terms, the result for `O=C(O)c1ccc2c3c1cccc3c(=O)n1c3ccccc3nc21` [STO-609] reads 0.2 °C. With `CN(C)S(=O)(=O)c1ccc2c(c1)/C(=C/c1cc3c([nH]1)CCCC3)C(=O)N2` [SU6656], the ΔTm at 20 µM was 0.1 °C. On the same count and under the same terms, in the case of `COc1ccc2c(c1)/C(=C/c1cnc[nH]1)C(=O)N2` [SU9516] it was 0 °C.

`CCN(CC)CCNC(=O)c1c(C)[nH]c(/C=C2\C(=O)Nc3ccc(Cl)cc32)c1C` [SU11652]: the ΔTm at 20 µM was 1.8 °C.

Regarding `Cl.Cl.NCCNc1ncc(C(N)=O)c(Nc2cccc(C(F)(F)F)c2)n1` [Syk Inhibitor II], the ΔTm amounted to 1.2 °C. On the same count and under the same terms, the result for `Brc1c(Br)c(Br)c2[nH]nnc2c1Br` [TBB, 4,5,6,7-Tetrabromobenzotriazole] reads 2.5 °C. `COc1cc2ncnc(Nc3cccc(O)c3)c2cc1OC` [WHI-P180, Hydrochloride]: the ΔTm was 0 °C. Still for that read-out and setting: the result for `COc1cc2ncnc(Nc3ccc(Cl)cc3F)c2cc1OC.Cl` [ZM 306416 hydrochloride] reads 0 °C. On the same count and under the same terms, the result for `Cc1ccc(NC(=O)c2cccc(N(C)C)c2)cc1NC(=O)c1ccc(O)cc1` [ZM 336372] reads 0.5 °C; that for `CCCCCCCCCCCCCCCCn1cc[n+](Cc2ccccc2)c1C.[I-]` [eEF-2 Kinase Inhibitor, NH125], 0 °C; that for Bisindolylmaleimide III, Hydrochloride, 51 °C. Still for that read-out and setting: in the case of Cdk1/2 Inhibitor III it was 1.1 °C; in that of DNA-PK Inhibitor III, 0.2 °C; in that of IGF-1R Inhibitor II, 0 °C.

For JAK3 Inhibitor II, the ΔTm came to 0.8 °C. Still for that read-out and setting: in the case of JAK3 Inhibitor IV it was 0.3 °C. Take JAK Inhibitor I: the ΔTm was 1.2 °C. For KN-62, the ΔTm turned out to be 0.7 °C. Still for that read-out and setting: the result for LY 364947 reads 0.6 °C; that for PI 3-Kb Inhibitor II, 0.2 °C. Still for that read-out and setting: in the case of PP1 Analog II, 1NM-PP1 it was 0.2 °C; in that of Ro-31-8220, 1.4 °C; in that of “VEGF Receptor Tyrosine Kinase Inhibitor II”, 0.2 °C.

Consider Wee1/Chk1 Inhibitor, for which the ΔTm worked out at 0 °C.

Still in this test, the particulars now being: library screen, 20 µM compound; 20 µM.
On to `CN(C)c1ccc(/C=C2\C(=O)Nc3ccccc32)cc1` [SU 4312], for which the ΔTm came out at 0.2 °C.

The test is the same for the next values; noted with them: titration, beginning at a 1 µM concentration.
Consider `c1ccc2c(-c3ccncc3)c[nH]c2c1` [Rockout, 3-pyridin-4-yl-1H-indole], for which the ΔTm is no less than 2 °C.

In the next test the test system is DDK.
Test: not given
The following applies: read-out: DDK IC50 (in vitro); cited from earlier work.
For the molecule `N#Cc1ccc2ccn(-c3cc(N)ncn3)c2n1` [1-(6-aminopyrimidin-4-yl)pyrrolo[2,3-b]pyridine-6-carbonitrile], the IC50 is 9 nM. On to `NC(=O)c1cc(-c2ccnc(N)n2)[nH]c1-c1ccccc1` [5-(2-Amino-pyrimidin-4-yl)-2-phenyl-1H-pyrrole-3-carboxamide], for which the IC50 is 22 nM. Consider `C=CCc1c(C)nc2sc3c(N)ncnc3c2c1C` [7,9-dimethyl-8-prop-2-enylpyrido[2,3]thieno[2,4-d]pyrimidin-4-amine], for which the IC50 was 20 nM. In the case of `O=C1N=C(NCc2ccccc2)S/C1=C\c1c[nH]c2ncccc12` [(5Z)-2-(Benzylamino)-5-(1H-pyrrolo[2,3-b]pyridin-3-ylmethylene)-1,3-thiazol-4(5H)-one], the IC50 is 9 nM. For the molecule `Nc1nccc(-c2cc3c([nH]2)[C@@H](CCF)CNC3=O)n1` [[(S )-2-(2-aminopyrimidin-4-yl)-7-(2-fluoro-ethyl)-1,5,6,7-tetrahydropyrrolo[3,2-c]pyridin-4-one], the IC50 was 2 nM.
